Tests used:
rat hepatocytes = assay: In vitro metabolism of Compound 2 in rat cryopreserved hepatocytes; assay type: in vitro ADME; design: key to Relative abundance of metabolite of Compound 2, Rat: ND Not detected.; trace: Trace: observed by HPLC/MS measurements only.; + Minor as assessed by HPLC/UV measurements; ++ moderate as assessed by HPLC/UV measurements; +++ major as assessed by HPLC/UV measurements.; * m/z 593 and m/z 505 co-eluted in rabbit hepatocytes.; ** m/z 591 c and m/z 593 were merged in human hepatocytes and Hepatopack.; *** m/z 607 and m/z 751 b were merged in rabbit hepatocytes; conditions: for metabolite of Compound 2 observed in rat hepatocyte incubations: 10 μM Compound 2, 7.5×10^5 cells/mL, 1 and 4 hrs composite
Protocol: (§1) Male CD-1 mouse hepatocytes (lot YHL), male Wistar-Han rat hepatocytes (Celsius; product number: M000065; lot: SLA), female New Zealand rabbit hepatocytes (lot 1510147), male cryopreserved cynomolgus monkey hepatocytes (Celsius; product number: M00305; lot: DNB) and mixed-gender cryopreserved human hepatocytes (Bioreclamation; product number: S01988; lot: DCM) were obtained for the hepatocyte in-vitro assessments.
(§2) At time 0 hrs 550 μL aliquots were removed from incubations and quenched with 5 volumes of ACN containing 0.1% formic acid. At 1 and 4 hrs, 275 μL aliquots were removed and quenched as above; these were combined in the same tube to prepare a composite sample. For all hepatocyte experiments, samples were processed by centrifugation at 1900×g for 5 minutes, and then the supernatant was transferred to clean glass tubes and evaporated to dryness under a stream of N2 using a Turbovap at 37° C. Sample residues were reconstituted in mobile phase prior to analysis by HPLC/UV/MS^n.
(§3) Samples were analyzed by HPLC/UV/MS^n using a Thermo Orbitrap Elite mass spectrometer in conjunction with a Thermo Open Accela UHPLC system. A 3.0×150 mm, 2.5 μm Acquity CSH C18 HPLC column (Waters) was heated to 45° C. for separation of analytes. The mobile phase was a gradient of A): water containing 0.1% formic acid, and B): acetonitrile. The flow rate was 450 μL/min, and the following gradient program was utilized: […]
(§4) UV absorbance was monitored with a photo-diode array detector from 220-450 nm. The mass spectrometer was operated in positive-ion mode with a HESI ion source at a potential of 3.0 kV, and capillary and source heater temperatures of 380 and 300° C., respectively. Sheath, auxiliary, and sweep gas flows were set to 45, 10, and 2 units, respectively. Full scan mass spectra were acquired over the range 120-1200 m/z at a resolving power of 30,000 (specified at m/z 400). Data-dependent MS^n spectra were acquired in an automated fashion at 15,000 resolving power using CID and HCD fragmentation with normalized collision energy settings of 28 and 65 V, respectively.
(§5) Metabolites were characterized by comparisons of mass spectral fragmentation patterns with that of a Compound 2 standard. All HPLC/UV/MS^n data were processed using Xcalibur v. 2.2, and integrated UV peak areas were subjected to weighted UV binning procedures utilizing an Excel template.

monkey hepatocytes = assay: In vitro metabolism of Compound 2 in monkey cryopreserved hepatocytes; assay type: in vitro ADME, cynomolgus monkey; design: key to Relative abundance of metabolite of Compound 2, Monkey: ND Not detected.; trace: Trace: observed by HPLC/MS measurements only.; + Minor as assessed by HPLC/UV measurements; ++ moderate as assessed by HPLC/UV measurements; +++ major as assessed by HPLC/UV measurements.; * m/z 593 and m/z 505 co-eluted in rabbit hepatocytes.; ** m/z 591 c and m/z 593 were merged in human hepatocytes and Hepatopack.; *** m/z 607 and m/z 751 b were merged in rabbit hepatocytes; conditions: for metabolite of Compound 2 observed in monkey hepatocyte incubations: 10 μM Compound 2, 7.5×10^5 cells/mL, 1 and 4 hrs composite
Protocol: as §1, §2, §3, §4, §5

human hepatocytes = assay: In vitro metabolism of Compound 2 in human cryopreserved hepatocytes; assay type: in vitro ADME; design: key to Relative abundance of metabolite of Compound 2, Human: ND Not detected.; trace: Trace: observed by HPLC/MS measurements only.; + Minor as assessed by HPLC/UV measurements; ++ moderate as assessed by HPLC/UV measurements; +++ major as assessed by HPLC/UV measurements.; * m/z 593 and m/z 505 co-eluted in rabbit hepatocytes.; ** m/z 591 c and m/z 593 were merged in human hepatocytes and Hepatopack.; *** m/z 607 and m/z 751 b were merged in rabbit hepatocytes; conditions: for metabolite of Compound 2 observed in human hepatocyte incubations: 10 μM Compound 2, 7.5×10^5 cells/mL, 1 and 4 hrs composite
Protocol: as §1, §2, §3, §4, §5

[1] = Circulating metabolites of Compound 2 in rat plasma following a 1.0 mg/kg IV bolus dose; assay type: in vivo; conditions: 1.0 mg/kg IV bolus dose of Compound 2, pooled 0.033-24 hrs
Protocol: (§6) Plasma and bile samples were obtained from a bile duct cannulated rat experiment (Study PK-0111) in which a 1.0 mg/kg IV bolus dose was administered to fed male rats (N=3). No control plasma was available from this experiment.
Clin Pharmacol Ther 1981; 29(3):408-13]. The entire volume of each replicate Hamilton pool was combined to create a single pooled sample (576 μL) for analysis.
(§7) Pooled plasma and bile samples were extracted with ACN containing 0.1% formic acid, and after centrifugation at 1900×g, the supernatant was transferred to clean tubes and evaporated under N2 in a Turbovap set at 37° C. Residues were reconstituted in mobile phase (5:95 v:v ACN:0.1% aqueous formic acid) prior to analysis by HPLC/UV/MS^n.
as §3, §4, §5

[2] = Metabolites of Compound 2 in rat bile following a 1.0 mg/kg IV bolus dose; assay type: in vivo; conditions: 1.0 mg/kg IV bolus dose of Compound 2, bile duct cannulated rats, pooled 0-24 hrs
Protocol: as §6
Bile samples (0-3, 3-7, and 7-24 hrs) from individual animals were pooled in proportion to the amount collect in each interval. Then 0.5 mL of each individual pool was combined to prepare a composite sample for analysis.
as §7, §3, §4, §5

| SMILES | metabolite of Compound 2 observed in rat hepatocyte incubations (rat hepatocytes) | Relative abundance of metabolite of Compound 2, Rat (rat hepatocytes; rat cryopreserved hepatocytes, HPLC/UV/MS) | metabolite of Compound 2 observed in monkey hepatocyte incubations (monkey hepatocytes) | Relative abundance of metabolite of Compound 2, Monkey (monkey hepatocytes; monkey cryopreserved hepatocytes, HPLC/UV/MS) | metabolite of Compound 2 observed in human hepatocyte incubations (human hepatocytes) | Relative abundance of metabolite of Compound 2, Human (human hepatocytes; human cryopreserved hepatocytes, HPLC/UV/MS) | detected in rat plasma [1] | detected in rat plasma ([1]; listed as m/z 331) | detected in rat bile [2] | detected in rat bile ([2]; listed as m/z 331) | metabolite of Compound 2 observed in human hepatocyte incubations (human hepatocytes; listed as m/z 751b) | detected in rat plasma ([1]; listed as m/z 751b) | detected in rat bile ([2]; listed as m/z 751b) |
| --- | --- | --- | --- | --- | --- | --- | --- | --- | --- | --- | --- | --- | --- |
| C[C@]1(c2ccc(Cl)cn2)Oc2cccc(C3CCNCC3)c2O1 [Metabolite 331] | observed in all hepatocyte incubations | trace | observed in all hepatocyte incubations | + | observed in all hepatocyte incubations | + | observed | detected | observed | detected |  |  |  |
| C[C@]1(c2ccc(Cl)cn2)Oc2cccc(C3CCN(Cc4nc5ccc(C(=O)O[C@@H]6O[C@H](C(=O)O)[C@@H](O)[C@H](O)[C@H]6O)cc5n4C[C@@H]4CCO4)CC3)c2O1 [Metabolite 751b] | observed in all hepatocyte incubations |  | observed in all hepatocyte incubations |  | observed in all hepatocyte incubations |  | observed |  | observed |  | most abundant metabolites | detected | detected |

From patent publication US12065434B2, “Metabolites of GLP1R agonists” (Pfizer Inc., priority 2020, dated 2024)
